Values joined by “and” are separate entries in the source; they are usually repeats but may differ in a detail not shown here. Equal values may be shown once. “Also recorded” adds a separate entry of the source.

For series [1] the following is noted: psilocin from psilocybin dosing; cited from earlier work.
For series [2] the following is noted: doses as low as 5 mg psilocybin (about 2 mg psilocin); cited from earlier work.
Series [3] has as its system healthy subjects. The experiment in a line: Phase one single-dose study of psilocin mucic acid conjugate capsules: psychiatrist mood assessment and mini mental state examination (MMSE). The following applies: single oral capsule, 4.05 mg conjugate equivalent to 2 mg psilocin.
A short description of series [4]: Stability studies on psilocin mucate capsule (appearance, HPLC assay and impurities, TM-022-0392). In kind it is physicochemical. The note with it: for Appearance, Packaging: Labeled, amber glass bottle with white closure containing 15 partially filled white opaque capsules / Appearance, Product: White to light brown powder partially filling white opaque capsules / Total Impurities TM-22-0392 / Impurities TM-22-0392, individual impurities / Assay TM-22-0392 (% Label Claim): capsule; for Assay TM-22-0392 (% Label Claim): specification 90.0-110.0%. Here is the method: Additional stability studies were performed on psilocin mucate (also known as psilocin mucic acid salt or conjugate or psilocin galactaric acid salt or conjugate) capsule.
Appearance was evaluated by viewing of the sample on a watchglass over a black and white background.
Assay conditions for Test/Method TM-022-0392 assessing stability and impurities were as follows: • Mobile phase: MPA: 945 mL water, 5 mL H3PO4, PH to 5.7 with NaOH; MPB: Acetonitrile • Diluent: 80:20 Water:MeOH • Standard: 0.4 mg/mL Psilocin Mucic RS in Diluent • Sample: 0.4 mg/mL Psilocin Mucic API in Diluent HPLC Conditions are depicted in Table 3.
Calculations were against a bracketing external standard.
Identity of psilocin mucate was verified by ultraviolet (UV) assessment, wherein the UV spectrum of the main peak in the standard matched the UV spectrum of the main peak in the sample and by retention time wherein the retention time ratio was 0.98-1.02.

Consider `CN(C)CCc1c[nH]c2cccc(OP(=O)(O)O)c12` [psilocybin, Psilocybin], for which the Estimated dose-normalized bioavailability in series [1] is 52.7%. In addition, in series [2], the “Adverse psychological effects reported” value is given as “hallucinogenic effects coupled with increased anxiety”.

As to psilocin mucate, the “FEELING STATUS (mood assessed by psychiatrist)” value in series [3] (one entry per subject (01-10)) is recorded as “Feel calm, less thoughts, happier mood; also recorded: Euphoric, better mood, it helps with life stress; also recorded: Euphories, better mood, sleepy, feel time is slower; also recorded: Sleepy, better thoughts, less worried in general; also recorded: Did not feel change in mood but feeling cold extremities; also recorded: More relaxed, want to drink sweet tea, better mood; also recorded: Better mood, feels hyper sexual; also recorded: Felt high mood, now they feel in good way,, they would love to; also recorded: Less anxious, better mood, increase their appetite; also recorded: Feel little beet happier, better energy”. For the same compound, the MMSE score in series [3] (one value per subject (01-10), scores expected below 25 with a hallucinogenic substance) is 28 (3×) and 27 (2×) and 30 (3×) and 29 (2×). In addition, the “Time demonstrated to be stable” value in series [4] is on record as “at least 7 months”. In addition, in series [4] (7 Months), the “Appearance, Packaging: Labeled, amber glass bottle with white closure containing 15 partially filled white opaque capsules” value is listed as “Conforms”; the “Appearance, Product: White to light brown powder partially filling white opaque capsules” value is “Conforms”; the “Total Impurities TM-22-0392” value is <0.05%; the “Assay TM-22-0392 (% Label Claim)” value is reported as 101.7%. In addition, the “Impurities TM-22-0392, individual impurities” value in series [4] (7 Months, all impurities) is “All <0.05%”. In series [4] (Initial), the “Appearance, Packaging: Labeled, amber glass bottle with white closure containing 15 partially filled white opaque capsules” value is “Conforms”; the “Appearance, Product: White to light brown powder partially filling white opaque capsules” value was “Conforms”; the “Total Impurities TM-22-0392” value stood at 0.08%; the “Assay TM-22-0392 (% Label Claim)” value is given as 100.8%. Besides, the “Impurities TM-22-0392, individual impurities” value in series [4] (Initial, impurity at RRT1.12) is recorded as “RRT1.12/0.08%”.

The values above are taken from patent US20260001841A1, “PREPARATION OF STABLE PSILOCIN SALTS, ESTERS AND CONJUGATES AND USES THEREOF” (LOBE SCIENCES LTD., priority 2022, published 2026).
